Like-named read-outs stand apart in the source and are kept apart here.
Tests used:
[1] = system: Lactobacillus plantarum LB931; experiment: MIC of antibiotics by E-test; type: cell-based
Description: MIC values of Lactobacillus plantarum LB931 were determined using E-test (Brown et al. J Antimicrob Chemother 1991;27:185-190).

[2] = system: LB931; experiment: Sensitivity to antibiotic substances by the SIR system; type: cell-based, Lactobacillus plantarum; parameters: key to Indication: S means sensitive; R strands for resistant; conditions: for Indication / Zone: SIR system
Description: The sensitivity to antibiotic substances was also determined using the SIR system. In table VI below S means sensitive and R strands for resistant.

[3] = system: LB931; experiment: MIC test for the spermacidal agent Tergitol NP-9; type: cell-based, Lactobacillus plantarum; conditions: for Cfu/ml LB931: 18 h, 37 °C, inoculated 1.0×10^7 cfu
Description: MIC tests were also carried out for the spermacidal agent Tergitol. LB931 was grown on MRS agar in 5% CO2, 37° C. for 48 h. The bacteria were inoculated in 3 ml MRS broth and incubated for 10 h under the same conditions as previously 1.5% of the culture was reinoculated to 3 ml MRS broth and was incubated under the same conditions for 18 h. NP-9 Tergitol (Sigma, US) Lot 47F0002 was diluted in MRS broth having a temperature of 37° C. (reduced viscosity) to a stock solution of 40%. […] 10 μl bacterial culture was added to each solution. The blank solution was mixed and added to MRS agar plates. The plates were grown in 5% CO2, 37° C. for 48 h for determining the cell density. The rest of the solutions were incubated without mixing in 5% CO2, 37° C. for 18 h. The solution containing 30% and 40% NP-9 were diluted in 37 ° C. MRS broth (reduced viscosity). All solutions were vigorously mixed; diluted in sterile 0.9% NaCl and added to MRS agar plates The plates were incubated in 5% CO2, 37° C. for 48 h for determining cfu/ml.
Inoculated amount of LB931 was 1.0×10^7 .cfu

[4] = Lactiplantibacillus plantarum, LB931, E-test, read-out: MIC

| Compound | Indication [2] | Zone [2] [mm] | further results |
| --- | --- | --- | --- |
| CO/N=C(\C(=O)N[C@@H]1C(=O)N2C(C(=O)O)=C(COC(N)=O)CS[C@H]12)c1ccco1 [Cefuroxime] |  |  | MIC [1, 4]: 0.38 µg/mL |
| CC1(C)S[C@@H]2[C@H](NC(=O)Cc3ccccc3)C(=O)N2[C@H]1C(=O)O [Benzylpenicillin] |  |  | MIC [1, 4]: 0.5 µg/mL |
| CC1=C(C(=O)O)N2C(=O)[C@@H](NC(=O)[C@H](N)c3ccc(O)cc3)[C@H]2SC1 [Cefadroxil] | S | 24 |  |
| O=C1CN(/N=C/c2ccc([N+](=O)[O-])o2)C(=O)N1 [Nitrofuantin] | S | 36 |  |
| CC(C)(O/N=C(\C(=O)N[C@@H]1C(=O)N2C(C(=O)[O-])=C(C[n+]3ccccc3)CS[C@H]12)c1csc(N)n1)C(=O)O [Ceftazidime] | S | 35 |  |
| NCC[C@H](O)C(=O)N[C@@H]1C[C@H](N)[C@@H](O[C@H]2O[C@H](CN)[C@@H](O)[C@H](O)[C@H]2O)[C@H](O)[C@H]1O[C@H]1O[C@H](CO)[C@@H](O)[C@H](N)[C@H]1O [Amikacin] | S | 30 |  |
| CO/N=C(\C(=O)N[C@@H]1C(=O)N2C(C(=O)[O-])=C(C[n+]3cccc4c3CCC4)CS[C@H]12)c1csc(N)n1 [Cefipirome] | S | 47 |  |
| Mecillinam/Ampicillin | S | 41 |  |
| NC[C@H]1O[C@H](O[C@H]2[C@H](O)[C@@H](O[C@H]3O[C@H](CO)[C@@H](O)[C@H](N)[C@H]3O)[C@H](N)C[C@@H]2N)[C@H](N)C[C@@H]1O [Tobramycin] | S | 32 |  |
| Piperacin/Tazobactam |  |  | MIC ([1]; E-test): 2 µg/mL |
| CCn1cc(C(=O)O)c(=O)c2cc(F)c(N3CCNCC3)cc21 [Norfloxacin] | R | 0 | Sensitivity of LB931 in words [2]: resistant |
| Cc1ncc([N+](=O)[O-])n1CCO [Metronidazole] |  |  | MIC [1, 4]: > 32 µg/mL |
| C[C@@H](O)[C@H]1C(=O)N2C(C(=O)O)=C(SCCN=CN)C[C@H]12 [Imipenem] |  |  | MIC [1, 4]: 0.016 µg/mL |
| C[C@H]1[C@H](NC(=O)/C(=N\OC(C)(C)C(=O)O)c2csc(N)n2)C(=O)N1S(=O)(=O)O [Aztreonam] | R | 0 |  |
| Tri/sulfamethoazole | S | 43 |  |
| CC1(C)S[C@@H]2[C@H](/N=C/N3CCCCCC3)C(=O)N2[C@H]1C(=O)O [Mecillinam] | R | 0 |  |
| CN(C)[C@@H]1C(=O)C(C(N)=O)=C(O)[C@@]2(O)C(=O)C3=C(O)c4c(O)cccc4[C@@](C)(O)[C@H]3C[C@@H]12 [Tetracyclin] |  |  | MIC ([1]; E-test): 2 µg/mL |
| CC1(C)S[C@@H]2[C@H](NC(=O)[C@H](N)c3ccccc3)C(=O)N2[C@H]1C(=O)O [Ampicillin] |  |  | MIC [1, 4]: 0.19 µg/mL |
| CO/N=C(\C(=O)N[C@@H]1C(=O)N2C(C(=O)O)=C(COC(C)=O)CS[C@H]12)c1csc(N)n1 [Cefotaxime] |  |  | MIC [1, 4]: 0.094 µg/mL |
| Cc1onc(-c2ccccc2)c1C(=O)N[C@@H]1C(=O)N2[C@@H]1SC(C)(C)[C@@H]2C(=O)O [Oxacillin] | R | 0 |  |
| CC(=O)OCC1=C(C(=O)O)N2C(=O)[C@@H](NC(=O)Cc3cccs3)[C@H]2SC1 [Cefalotin] | S | 22 |  |
| CCC[C@@H]1C[C@@H](C(=O)N[C@@H]([C@H]2O[C@H](SC)[C@H](O)[C@@H](O)[C@H]2O)[C@H](C)Cl)N(C)C1 [Clindamycin] | S | 35 |  |
| CN[C@H](CC(C)C)C(=O)N[C@H]1C(=O)N[C@@H](CC(N)=O)C(=O)N[C@H]2C(=O)N[C@H]3C(=O)N[C@H](C(=O)N[C@H](C(=O)O)c4cc(O)cc(O)c4-c4cc3ccc4O)[C@H](O)c3ccc(c(Cl)c3)Oc3cc2cc(c3O[C@@H]2O[C@H](CO)[C@@H](O)[C@H](O)[C@H]2O[C@H]2C[C@](C)(N)[C@H](O)[C@H](C)O2)Oc2ccc(cc2Cl)[C@H]1O [Vancomycin] |  |  | Sensitivity of LB931 in words [1]: resistant; MIC ([1]; Lactiplantibacillus plantarum, LB931): > 256 µg/mL |
| CCN[C@@H]1C[C@H](N)[C@@H](O[C@H]2OC(CN)=CC[C@H]2N)[C@H](O)[C@H]1O[C@H]1OC[C@](C)(O)[C@H](NC)[C@H]1O [Netilmycin] | R | 0 |  |
| CC[C@H]1OC(=O)[C@H](C)[C@@H](O[C@H]2C[C@@](C)(OC)[C@@H](O)[C@H](C)O2)[C@H](C)[C@@H](O[C@@H]2O[C@H](C)C[C@H](N(C)C)[C@H]2O)[C@](C)(O)C[C@@H](C)C(=O)[C@H](C)[C@@H](O)[C@]1(C)O [Erythromycin] |  |  | MIC [1, 4]: 0.25 µg/mL |
| Gentamycin |  |  | MIC ([1]; E-test): 0.25 µg/mL |
| COc1cc(Cc2cnc(N)nc2N)cc(OC)c1OC [Trimetoprim] |  |  | MIC ([1]; E-test): 0.016 µg/mL |
| Tergitol NP-9 |  |  | Cfu/ml LB931 ([3]; 1% Tergitol NP-9 in MRS broth): 2.5 × 10^9 Cfu/ml; Cfu/ml LB931 ([3]; 5% Tergitol NP-9 in MRS broth): 2.5 × 10^9 Cfu/ml; Cfu/ml LB931 ([3]; 10% Tergitol NP-9 in MRS broth): 1.6 × 10^9 Cfu/ml; Cfu/ml LB931 ([3]; 20% Tergitol NP-9 in MRS broth): 1.4 × 10^9 Cfu/ml; Cfu/ml LB931 ([3]; 30% Tergitol NP-9 in MRS broth): 1.0 × 10^9 Cfu/ml; Cfu/ml LB931 ([3]; 40% Tergitol NP-9 in MRS broth): 6.9 × 10^7 Cfu/ml; Survival of LB931 in tergitol NP-9 in words ([3]; up to 40% tergitol NP-9): survive well |
| CCn1cc(C(=O)O)c(=O)c2ccc(C)nc21 [Nalidixin acid] | R | 0 | Sensitivity of LB931 in words [2]: resistant |

Source: patent US6761885B1, “Strain of Lactobacillus plantarum and uses thereof” (SCA Hygiene Products AB, priority 1998, dated 2004)
